Measurements from article PMC10272112 (Nature Communications, 2023).
pEC50: −log10 of the molar value. Values joined by “and” are separate entries in the source; they are usually repeats but may differ in a detail not shown here. Equal entries are not always repeated. Values belong to the molecule of their own block, whether it stands above or below them.

Experiments:
[1] = system: HDACs (HDAC1, HDAC2, HDAC6); set-up: method as in earlier work; conditions: ref Bantscheff et al., Nat Biotech, 2011; Lechner et al., Nat Chem Bio, 2023; read-out: EC50 in comparable chemoproteomic competition assays; cited from earlier work
[2] = system: DDX3X AcK118; conditions: 10 µM; cited from earlier work
[3] = molecular target: HDAC1 (Homo sapiens, UniProt Q13547); test: HDAC-Glo assay; type: biochemical; set-up: purchased BPS Bioscience 50051; conditions: for raw luminescence signal, HDAC1 inhibition: 0.5 M TCEP
Sequence of HDAC1 (Q13547 whole entry): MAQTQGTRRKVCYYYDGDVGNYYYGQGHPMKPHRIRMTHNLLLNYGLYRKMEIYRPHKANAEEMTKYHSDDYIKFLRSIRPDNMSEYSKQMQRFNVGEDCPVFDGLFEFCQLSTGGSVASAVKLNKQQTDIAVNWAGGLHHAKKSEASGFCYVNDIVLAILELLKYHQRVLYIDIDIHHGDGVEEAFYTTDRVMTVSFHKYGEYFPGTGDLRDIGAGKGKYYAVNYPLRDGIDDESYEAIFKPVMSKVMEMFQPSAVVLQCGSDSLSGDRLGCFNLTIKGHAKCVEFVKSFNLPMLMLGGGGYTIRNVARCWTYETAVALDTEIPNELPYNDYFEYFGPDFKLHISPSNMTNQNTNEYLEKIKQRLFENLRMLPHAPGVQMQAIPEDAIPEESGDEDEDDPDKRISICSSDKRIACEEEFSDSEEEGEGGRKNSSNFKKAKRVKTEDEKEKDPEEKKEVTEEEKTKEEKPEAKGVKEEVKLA
Protocol: (§1) To validate the inhibition of HDACs by LA and LM and elaborate on the structure-activity relationship (SAR) of enantiomers as well as oxidized versus reduced forms of the molecules, we performed enzyme activity assays for recombinant HDAC1,2,3,6,8 as well as FRET-based binding assay for recombinant HDAC10.
(§2) The experiments were performed according to ref. [48]. […] Drug dosing was performed with a D300e Digital Dispenser (Tecan). HDACs (7 ng/mL for HDAC1, 25 ng/mL for HDAC2, 200 ng/mL for HDAC3/Ncor2 complex, 100 ng/mL for HDAC6, 200 ng/mL for HDAC8) and inhibitors were incubated together at room temperature (RT) for 30 min. After the addition of the HDAC-Glo™ I/II reagent, plates were shaken (800 rpm orbital shaker, 30 s), centrifuged (300 g, 1 min), and incubated at RT for 30 min. Luminescence was detected with a CLARIOstar (BMG Labtech) plate reader.

[4] = molecular target: T1, HDAC3/NcoR2 complex (Homo sapiens, UniProt O15379); test: HDAC-Glo assay; type: biochemical; conditions: read-out: log EC50 from dose-dependent HDAC inhibition curves (converted)
T1 construct: purchased BPS Bioscience 50003
T1 sequence (O15379 whole entry): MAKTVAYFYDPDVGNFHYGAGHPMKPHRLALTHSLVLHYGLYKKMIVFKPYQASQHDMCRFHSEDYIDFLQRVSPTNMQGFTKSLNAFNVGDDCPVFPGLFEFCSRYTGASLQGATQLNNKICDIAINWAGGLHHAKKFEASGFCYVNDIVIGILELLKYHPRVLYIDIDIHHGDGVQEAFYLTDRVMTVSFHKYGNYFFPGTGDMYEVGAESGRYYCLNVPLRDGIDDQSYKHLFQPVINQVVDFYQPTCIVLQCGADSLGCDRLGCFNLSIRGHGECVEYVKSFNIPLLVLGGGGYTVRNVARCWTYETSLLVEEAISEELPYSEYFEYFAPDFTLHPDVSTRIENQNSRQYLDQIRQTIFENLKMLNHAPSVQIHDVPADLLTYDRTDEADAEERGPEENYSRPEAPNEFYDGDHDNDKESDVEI
T1 sequence (Q9Y618 395-489 partner limits assumed): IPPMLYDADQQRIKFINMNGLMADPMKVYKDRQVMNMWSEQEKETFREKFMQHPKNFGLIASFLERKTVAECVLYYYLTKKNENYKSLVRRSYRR
Protocol: as §1, §2

[5] = molecular target: T2, HDAC8 (Homo sapiens, UniProt Q9BY41); test: HDAC-Glo assay; type: biochemical; set-up: purchased BPS Bioscience 50008; conditions: read-out: log EC50 from dose-dependent HDAC inhibition curves (converted)
T2 sequence (Q9BY41 1-377): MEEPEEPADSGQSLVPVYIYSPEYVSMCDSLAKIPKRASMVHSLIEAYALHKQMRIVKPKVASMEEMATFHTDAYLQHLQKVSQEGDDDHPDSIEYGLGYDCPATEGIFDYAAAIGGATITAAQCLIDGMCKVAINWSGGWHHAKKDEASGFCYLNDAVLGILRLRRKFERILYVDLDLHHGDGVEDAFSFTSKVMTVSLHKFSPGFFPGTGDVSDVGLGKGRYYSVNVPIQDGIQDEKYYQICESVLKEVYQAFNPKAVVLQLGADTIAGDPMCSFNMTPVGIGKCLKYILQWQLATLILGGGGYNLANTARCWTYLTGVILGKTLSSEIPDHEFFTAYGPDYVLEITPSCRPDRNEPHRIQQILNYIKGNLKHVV
Protocol: as §1, §2

[6] = molecular target: T3, HDAC6 (Homo sapiens, UniProt Q9UBN7); test: HDAC-Glo assay; type: biochemical; set-up: purchased BPS Bioscience 50006; conditions: read-out: log EC50 from dose-dependent HDAC inhibition curves (converted)
T3 sequence (Q9UBN7 1-1215): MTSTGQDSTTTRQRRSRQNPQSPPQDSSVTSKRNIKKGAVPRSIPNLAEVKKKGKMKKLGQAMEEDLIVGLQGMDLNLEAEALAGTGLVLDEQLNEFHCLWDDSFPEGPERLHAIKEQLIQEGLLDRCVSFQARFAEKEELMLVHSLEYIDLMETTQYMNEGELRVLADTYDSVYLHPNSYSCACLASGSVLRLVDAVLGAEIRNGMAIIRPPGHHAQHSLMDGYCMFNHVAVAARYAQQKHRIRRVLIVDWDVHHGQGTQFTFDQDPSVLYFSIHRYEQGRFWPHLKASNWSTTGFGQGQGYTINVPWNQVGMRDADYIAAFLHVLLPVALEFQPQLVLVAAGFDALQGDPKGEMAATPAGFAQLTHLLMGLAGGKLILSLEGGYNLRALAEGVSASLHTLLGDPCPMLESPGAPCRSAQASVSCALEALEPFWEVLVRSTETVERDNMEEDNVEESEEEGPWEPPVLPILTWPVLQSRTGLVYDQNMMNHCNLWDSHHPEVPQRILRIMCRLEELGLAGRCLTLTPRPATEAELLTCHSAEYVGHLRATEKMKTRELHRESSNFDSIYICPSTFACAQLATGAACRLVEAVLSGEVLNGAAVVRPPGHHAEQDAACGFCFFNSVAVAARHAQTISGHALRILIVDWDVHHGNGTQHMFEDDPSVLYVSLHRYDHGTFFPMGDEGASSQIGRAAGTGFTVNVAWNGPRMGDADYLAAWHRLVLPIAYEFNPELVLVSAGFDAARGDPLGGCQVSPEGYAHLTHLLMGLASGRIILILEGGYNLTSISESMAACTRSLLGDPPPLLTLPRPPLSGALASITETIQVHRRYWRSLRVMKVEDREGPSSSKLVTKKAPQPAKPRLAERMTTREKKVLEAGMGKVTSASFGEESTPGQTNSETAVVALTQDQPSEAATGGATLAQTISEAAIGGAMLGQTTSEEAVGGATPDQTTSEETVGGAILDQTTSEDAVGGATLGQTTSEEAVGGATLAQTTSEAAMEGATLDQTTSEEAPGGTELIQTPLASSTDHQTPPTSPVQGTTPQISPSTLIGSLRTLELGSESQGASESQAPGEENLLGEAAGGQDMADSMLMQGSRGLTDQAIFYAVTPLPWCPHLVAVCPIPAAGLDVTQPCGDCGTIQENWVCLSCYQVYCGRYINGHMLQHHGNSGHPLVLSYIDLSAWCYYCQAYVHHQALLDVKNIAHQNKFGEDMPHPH
Protocol: as §1, §2

[7] = molecular target: HDAC2 (Homo sapiens, UniProt Q92769); test: HDAC-Glo assay; type: biochemical; set-up: purchased BPS Bioscience 50002; conditions: read-out: log EC50 from dose-dependent HDAC inhibition curves (converted)
Sequence of HDAC2 (Q92769 whole entry): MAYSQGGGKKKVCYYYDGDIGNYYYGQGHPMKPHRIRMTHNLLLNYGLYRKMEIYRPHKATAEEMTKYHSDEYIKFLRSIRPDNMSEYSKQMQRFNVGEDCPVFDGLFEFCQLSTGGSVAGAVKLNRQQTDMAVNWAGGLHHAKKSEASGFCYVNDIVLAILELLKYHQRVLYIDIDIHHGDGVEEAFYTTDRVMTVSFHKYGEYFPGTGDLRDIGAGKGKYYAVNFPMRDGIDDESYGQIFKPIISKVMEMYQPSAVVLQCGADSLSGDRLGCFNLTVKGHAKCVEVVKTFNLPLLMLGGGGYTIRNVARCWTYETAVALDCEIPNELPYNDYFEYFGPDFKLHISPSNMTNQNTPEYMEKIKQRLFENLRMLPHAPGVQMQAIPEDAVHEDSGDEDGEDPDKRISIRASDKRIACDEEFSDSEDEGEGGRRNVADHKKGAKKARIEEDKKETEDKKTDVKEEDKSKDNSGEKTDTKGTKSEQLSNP
Protocol: as §1, §2

[8] = system: A549 cells; test: CellRox deep red assay for ROS quantification (with or without arsenite); type: cell-based; conditions: sheet 4d
[9] = system: A549 cells; test: CellRox deep red assay for tBuOOH-induced ROS; conditions: NAC 500 ?M; sheet 4c; DMSO mean = 1
[10] = system: α-Tubulin AcK40; test: α-tubulin acetylation detection by western blot, CBP-HA transfected HEK293T; type: cell-based; conditions: HEK293T, ACY-738 5 µM
Protocol: (§3) 0.2 × 10^6 HEK293T (ATCC: CRL-3216) cells were transfected with pcDNA 3.1-HA CBP plasmids (1 μg/well for the 6-well plate) by FuGENE. After 2 days, cells were treated with ACY-738, lipoic acid, and lipoamide for 7 h, then were washed by ice-cold PBS and lysed in Triton lysis buffer (50 mM Tris, pH 8.0, 150 mM NaCl, 1 mM EDTA, 0.1% TritonX-100 and complete EDTA-free protease inhibitors (Roche)) for analysis. To detect protein acetylation, 0.2 μM Trichostatin A and 5 mM nicotinamide were added to PBS for washing, and 10 μM trichostatin A, 10 mM nicotinamide, and 50 mM sodium butyrate were added to Triton lysis buffer.

[11] = system: DDX3X AcK118; test: DDX3X acetylation detection by western blot, CBP-HA transfected HEK293T; type: cell-based; conditions: 5 µM
Protocol: as §3

SMILES: CCCC(CCC)C(=O)O [Valproic acid]
pEC50 [1]: 3.30 to 3.52

SMILES: CN1CCc2c(c3ccccc3n2Cc2ccc(C(=O)NO)cc2)C1 [Tubastatin A]
DDX3X hyperacetylation [2]: 2.6 fold

raw luminescence signal, HDAC1 inhibition ([3]; log10 M -3.30103, 3 technical replicates): 10948 and 11336 and 10633
raw luminescence signal, HDAC1 inhibition ([3]; log10 M -3.82945, 3 technical replicates): 35128 and 33959 and 34884
raw luminescence signal, HDAC1 inhibition ([3]; log10 M -4.35788, 3 technical replicates): 100059 and 96489 and 102534
raw luminescence signal, HDAC1 inhibition ([3]; log10 M -4.88629, 3 technical replicates): 200567 and 200318 and 195985
raw luminescence signal, HDAC1 inhibition ([3]; log10 M -5.41477, 3 technical replicates): 315045 and 314071 and 307544
raw luminescence signal, HDAC1 inhibition ([3]; log10 M -5.94309, 3 technical replicates): 353287 and 345284 and 342473
raw luminescence signal, HDAC1 inhibition ([3]; log10 M -6.47756, 3 technical replicates): 372512 and 378178 and 378301
raw luminescence signal, HDAC1 inhibition ([3]; log10 M -6.87615, 3 technical replicates): 385390 and 377410 and 356944
EC50 ([3]; read-out: log EC50 from dose-dependent HDAC inhibition curves (converted)): 15.1 µM
EC50 [4]: 47.5 µM
EC50 [5]: 20.2 µM
EC50 [6]: 2.42 µM
EC50 [7]: 33.4 µM
SMILES: O=C(O)CCCCC(S)CCS (racemic) [RS LA reduced, (R/S)-dihydrolipoic acid]

SMILES: CC(C)(C)OO [TBHP]
ROS (CellRox), relative to DMSO -Ars., Mean ([8]; TBHP -Ars): 8.0156
ROS (CellRox), relative to DMSO -Ars., replicate values ([8]; TBHP -Ars): 8.277 and 8.688 and 7.082

SMILES: CC(=O)N[C@@H](CS)C(=O)O [NAC, N-acetyl-cysteine]
ROS (CellRox), relative to DMSO -Ars., Mean ([8]; NAC +Ars): 0.6662
ROS (CellRox), relative to DMSO -Ars., replicate values ([8]; NAC +Ars): 0.6371 and 0.672 and 0.6896
tBuOOH-induced ROS (CellRox), relative to DMSO, Mean [9]: 0.6999
tBuOOH-induced ROS (CellRox), relative to DMSO, replicate values [9]: 0.7684 and 0.7006 and 0.6306

SMILES: O=C(O)CCCc1ccccc1 [Phenylbutyric acid]
pEC50 [1]: 3.30 to 3.52

SMILES: O=C(NO)c1cnc(NC2(c3ccccc3)CC2)nc1 [ACY-738]
α-Tubulin AcK40 acetylation level relative to control [10]: 6.5 fold
DDX3X AcK118 acetylation level relative to control [11]: 3.0 fold
DDX3X AcK118 acetylation level relative to control ([11]; listed as ACY738): 3 fold
